# Legend:
# A549 cells = assay: Measurement of PGE2 concentration in A549 cell medium (ELISA); type: cell-based, human; conditions: for Increment %: PGE2 concentration versus PBS control, 5 μM, 12 hours; for PGE2 concentration: inhibitor 5 μM, medium collected after 12 hours, ELISA
# Summary of the method: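 A549 cells in RPMI 1640 with 8% FBS, seeded at 5×10^5 cells/well and grown 24 h at 37° C, 5% CO2; at ~80% confluence treated with 15-PGDH inhibitor at 5 μM in PBS (PBS-only negative control). After 12 h, PGE2 in the medium was measured by ELISA against a standard curve.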
# 15-PGDH = 15-PGDH (Homo sapiens (Human), UniProt P15428); assay: 15-PGDH inhibitory activity (NADH at 340 nm); type: biochemical; conditions: concentration inhibiting 50% of 15-PGDH activity; purified 15-PGDH, 21 μM PGE2, 0.25 mM NAD+
# Summary of the method: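 GST-purified human 15-PGDH (E. coli BL-21 LysS, 10 μg) with 21 μM PGE2 and 0.25 mM NAD+ in 50 mM Tris-HCl pH 7.5, 0.1 mM DTT. Compound tested at 0.0001–64 μM; NADH formation read by absorbance at 340 nm against a standard curve.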
# HaCaT cells = assay: Wound treatment (scratch) assay in HaCaT cells; type: cell-based, human; conditions: 48 hours
# Protocol: HaCaT cells subcultured for about one week in DMEM [containing+8% FBS, AA] medium were inoculated in a 6-well plate at 2×10^5 cells/mL ([…]). Then, the cells were cultured for about 24 hours until the cells reached 80% confluency. HaCaT cells are an adult human skin-derived and spontaneously […] aneuploid immortal keratinocyte cell line. After the culture, the cells were washed with 1×PBS buffer and the used medium was replaced with an FBS and antibiotic-free medium. Then, mitomycin was added thereto at a concentration of 30 μg/mL and the cells were cultured for 2 hours. Then, the cells were washed with 1×PBS buffer, and a cell monolayer on the bottom surface of each well was scratched by using a 200 μL pipette tip to harm the cells. Since some cells were washed away by the scratching, the plate was washed repeatedly with 1×PBS buffer and then, filled with DMEM medium containing FBS and AA, and photographed at the time of 0 hour.
# The 15-PGDH inhibitor was then injected at a concentration of 5 μM or the indicated concentration. For comparison with the results, in the case of the negative control, nothing was added, and in the case of the positive control, TGF-β1 was injected at a concentration of 1 ng/mL and then, the cells were cultured for 48 hours. After 48 hours, the picture of the cells was taken again to confirm how much the cells were grown due to the drug effect.
# [1] = 5 μM, versus control (FIGS. 1 to 3)
# [2] = 0.5 μM to 5 μM, versus control (FIGS. 4 to 6)
# Chain of 15-PGDH (P15428 whole entry): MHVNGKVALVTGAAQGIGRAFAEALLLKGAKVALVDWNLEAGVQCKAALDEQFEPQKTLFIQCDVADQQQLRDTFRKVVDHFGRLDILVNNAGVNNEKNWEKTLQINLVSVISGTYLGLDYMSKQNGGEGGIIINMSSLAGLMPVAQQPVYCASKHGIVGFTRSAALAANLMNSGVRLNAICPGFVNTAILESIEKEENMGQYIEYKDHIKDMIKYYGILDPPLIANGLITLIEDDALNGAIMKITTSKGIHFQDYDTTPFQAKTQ
Structure (SMILES),Increment % (A549 cells),PGE2 concentration (A549 cells),IC50 (15-PGDH),wound closure rate (HaCaT cells; [1]),wound closure rate (HaCaT cells; [2])
"O=C1NC(=O)/C(=C/c2ccc(OC(=O)C3CC3)c(Cl)c2)S1 [Compound 1, (Z)-2-chloro-4-((2,4-dioxothiazolidin-5-ylidene)methyl)phenyl cyclopropanecarboxylate]",3.47%,283.2688 pg/mL,2090 nM,significantly higher wound closure rates than the control,–
"O=C(CCCc1ccccc1)Oc1ccc(/C=C2\SC(=O)NC2=O)cc1Cl [Compound 14, (Z)-2-chloro-4-((2,4-dioxothiazolidin-5-ylidene)methyl)phenyl 4-phenylbutanoate]",389.99%,586.3975 pg/mL,22 nM,significantly higher wound closure rates than the control,–
"O=C(CCCC1CCCCC1)Oc1ccc(/C=C2\SC(=O)NC2=O)cc1Cl [Compound 9, (Z)-2-chloro-4-((2,4-dioxothiazolidin-5-ylidene)methyl)phenyl 4-cyclohexylbutanoate]",189.34%,792.1232 pg/mL,20.2 nM,–,–
"O=C(CCC1CCCC1)Oc1cccc(/C=C2\SC(=O)NC2=O)c1Cl [Compound 80, (Z)-2-chloro-3-((2,4-dioxothiazolidin-5-ylidene)methyl)phenyl 3-cyclopentylpropanoate]",97.99%,236.9453 pg/mL,34.7 nM,–,–
"O=C(CC1CCCC1)Oc1ccc(/C=C2\SC(=O)NC2=O)cc1 [Compound 64, (Z)-4-((2,4-dioxothiazolidin-5-ylidene)methyl)phenyl 2-cyclopentylacetate]",25.34%,199.4576 pg/mL,52.1 nM,–,–
"O=C1NC(=O)/C(=C/c2cccc(OC(=O)C3CCC3)c2Cl)S1 [Compound 77, (Z)-2-chloro-3-((2,4-dioxothiazolidin-5-ylidene)methyl)phenyl cyclobutanecarboxylate]",56.54%,187.3399 pg/mL,482 nM,–,–
"O=C(CCc1ccccc1)Oc1ccc(/C=C2\SC(=O)NC2=O)c(Cl)c1 [Compound 103, (Z)-3-chloro-4-((2,4-dioxothiazolidin-5-ylidene)methyl)phenyl 3-phenylpropanoate]",159.989%,290.2972 pg/mL,87.5 nM,–,–
"O=C(Cc1ccccc1)Oc1ccc(/C=C2\SC(=O)NC2=O)cc1Cl [Compound 12, (Z)-2-chloro-4-((2,4-dioxothiazolidin-5-ylidene)methyl)phenyl 2-phenylacetate]",−34.89%,77.92 pg/mL,63.5 nM,–,–
"O=C(CCCc1ccccc1)Oc1cccc(/C=C2\SC(=O)NC2=O)c1Cl [Compound 89, (Z)-2-chloro-3-((2,4-dioxothiazolidin-5-ylidene)methyl)phenyl 4-phenylbutanoate]",398.2%,1048.274 pg/mL,25.1 nM,significantly higher wound closure rates than the control,significantly high wound closure rate
"O=C(CC1CCCCC1)Oc1ccc(/C=C2\SC(=O)NC2=O)cc1Cl [Compound 7, (Z)-2-chloro-4-((2,4-dioxothiazolidin-5-ylidene)methyl)phenyl 2-cyclohexylacetate]",20.36%,329.5084 pg/mL,23.8 nM,–,–
"CCOc1cc(/C=C2\SC(=O)NC2=O)ccc1OC(=O)CCCc1ccccc1 [Compound 59, (Z)-4-((2,4-dioxothiazolidin-5-ylidene)methyl)-2-ethoxyphenyl 4-phenylbutanoate]",579.34%,1081.055 pg/mL,43.9 nM,significantly higher wound closure rates than the control,significantly high wound closure rate
"O=C1NC(=O)/C(=C/c2ccc(OC(=O)C3CCCCC3)cc2)S1 [Compound 66, (Z)-4-((2,4-dioxothiazolidin-5-ylidene)methyl)phenyl cyclohexanecarboxylate]",2.49%,132.3901 pg/mL,88.8 nM,–,–
"O=C(CCCC1CCCCC1)Oc1ccc(/C=C2\SC(=O)NC2=O)cc1Br [Compound 24, (Z)-2-bromo-4-((2,4-dioxothiazolidin-5-ylidene)methyl)phenyl 4-cyclohexylbutanoate]",299.32%,1010.425 pg/mL,15.4 nM,–,–
"COc1cc(/C=C2\SC(=O)NC2=O)ccc1OC(=O)C1CCC1 [Compound 32, (Z)-4-((2,4-dioxothiazolidin-5-ylidene)methyl)-2-methoxyphenyl cyclobutanecarboxylate]",60.62%,316.7495 pg/mL,1120 nM,–,–
"O=C(CCCc1ccccc1)Oc1ccc(/C=C2\SC(=O)NC2=O)cc1Br [Compound 29, (Z)-2-bromo-4-((2,4-dioxothiazolidin-5-ylidene)methyl)phenyl 4-phenylbutanoate]",367.81%,922.5414 pg/mL,14.5 nM,–,–
"O=C1NC(=O)/C(=C/c2cccc(OC(=O)C3CCCC3)c2Cl)S1 [Compound 78, (Z)-2-chloro-3-((2,4-dioxothiazolidin-5-ylidene)methyl)phenyl cyclopentanecarboxylate]",−67.32%,39.11 pg/mL,56.2 nM,–,–
"O=C(CCCCc1ccccc1)Oc1ccc(/C=C2\SC(=O)NC2=O)cc1Cl [Compound 15, (Z)-2-chloro-4-((2,4-dioxothiazolidin-5-ylidene)methyl)phenyl 5-phenylpentanoate]",84.11%,220.3344 pg/mL,44 nM,–,–
"O=C(CCc1ccccc1)Oc1ccc(/C=C2\SC(=O)NC2=O)cc1 [Compound 73, (Z)-4-((2,4-dioxothiazolidin-5-ylidene)methyl)phenyl 3-phenylpropanoate]",102.39%,261.4347 pg/mL,54.4 nM,–,–

# Source: patent US10787425B2, “Thiazolidinedione derivative and use thereof” (INDUSTRY-ACADEMIC COOPERATION FOUNDATION CHOSUN UNIVERSITY, priority 2016, dated 2020)
